Laboratory results published in PubChem BioAssay AID330 (DTP/NCI, 2004).
Where “and” joins values, the source holds several entries; their conditions need not be identical. Equal entries are not always repeated. Inconclusive results and toxic doses are left out. The calls were made as follows: active = survival T/C of 150% or more; inactive = T/C below 125% in these data.

Tested on: P388 leukemia ip, CD2F1 mice, survival T/C
Test: NCI In Vivo Anticancer Drug Screen. Data for tumor model P388 Leukemia (intraperitoneal) in CD2F1 (CDF1) mice
Conditions: endpoint: median survival time, higher = longer survival
Summary of the method: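 Mice carrying the transplanted tumor received test compound or vehicle. Survival was recorded in each group, and the value is the treated-group measurement divided by that of the vehicle-treated control group.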

[1] = dose: 100.0 mg/kg/injection, schedule: Q01DX001 (ip), vehicle: Klucel (hydroxypropylcellulose) (HPC)
[2] = dose: 200.0 mg/kg/injection, schedule: Q01DX001 (ip), vehicle: Klucel (hydroxypropylcellulose) (HPC)
[3] = dose: 400.0 mg/kg/injection, schedule: Q01DX001 (ip), vehicle: Klucel (hydroxypropylcellulose) (HPC)
[4] = dose: 60.0 mg/kg/injection, schedule: Q01DX005 (ip), vehicle: saline
[5] = dose: 120.0 mg/kg/injection, schedule: Q01DX005 (ip), vehicle: saline
[6] = dose: 240.0 mg/kg/injection, schedule: Q01DX005 (ip), vehicle: saline
[7] = dose: 50.0 mg/kg/injection, schedule: Q01DX005 (ip), vehicle: Klucel (hydroxypropylcellulose) (HPC)
[8] = dose: 100.0 mg/kg/injection, schedule: Q01DX005 (ip), vehicle: Klucel (hydroxypropylcellulose) (HPC)
[9] = dose: 200.0 mg/kg/injection, schedule: Q01DX005 (ip), vehicle: Klucel (hydroxypropylcellulose) (HPC)
[10] = dose: 60.0 mg/kg/injection, schedule: Q01DX005 (ip), vehicle: saline with Tween-80
[11] = dose: 120.0 mg/kg/injection, schedule: Q01DX005 (ip), vehicle: saline with Tween-80
[12] = dose: 240.0 mg/kg/injection, schedule: Q01DX005 (ip), vehicle: saline with Tween-80
[13] = dose: 50.0 mg/kg/injection, schedule: Q01DX009 (ip), vehicle: saline
[14] = dose: 100.0 mg/kg/injection, schedule: Q01DX009 (ip), vehicle: saline
[15] = dose: 50.0 mg/kg/injection, schedule: Q01DX005 (ip), vehicle: saline with Tween-80
[16] = dose: 100.0 mg/kg/injection, schedule: Q01DX005 (ip), vehicle: saline with Tween-80
[17] = dose: 200.0 mg/kg/injection, schedule: Q01DX005 (ip), vehicle: saline with Tween-80
[18] = dose: 200.0 mg/kg/injection, schedule: Q01DX009 (ip), vehicle: saline
[19] = dose: 6.25 mg/kg/injection, schedule: Q01DX009 (ip), vehicle: saline
[20] = dose: 12.5 mg/kg/injection, schedule: Q01DX009 (ip), vehicle: saline
[21] = dose: 25.0 mg/kg/injection, schedule: Q01DX009 (ip), vehicle: saline
[22] = dose: 100.0 mg/kg/injection, schedule: Q04DX003 (ip), vehicle: saline
[23] = dose: 200.0 mg/kg/injection, schedule: Q04DX003 (ip), vehicle: saline
[24] = dose: 50.0 mg/kg/injection, schedule: Q01DX009 (ip), vehicle: saline with Tween-80
[25] = dose: 100.0 mg/kg/injection, schedule: Q01DX009 (ip), vehicle: saline with Tween-80
[26] = dose: 200.0 mg/kg/injection, schedule: Q01DX009 (ip), vehicle: saline with Tween-80

Measured: T/C

O=C1c2ccccc2-c2c1c1ccccc1n2S(=O)(=O)c1ccccc1
inactive: [1] 103 % of control | [2] 103 % of control | [3] 101 % of control

O=C1CN=CN1
inactive: [4] 96 % of control | [5] 96 % of control | [6] 102 % of control

CCN(CC)CCOc1ccc(C=Nc2ccc3c4ccccc4n(CC)c3c2)cc1
inactive: [1] 100 % of control | [2] 100 % of control | [3] 99 % of control

CC(NC(=O)OCc1ccccc1)C(=O)NCC(=O)OCc1ccccc1 (stereo not drawn)
inactive: [7] 100 % of control | [8] 98 % of control | [9] 104 % of control

Cc1ccc(NC(=O)c2cc3ccccc3c(N=Nc3ccccc3O)c2O)c(C)c1
inactive: [10] 94 % of control | [11] 109 % of control | [12] 97 % of control

COC(=O)C1CP2(C)(C)N(C)C(=O)N2C1(c1ccccc1)c1ccccc1 (stereo not drawn)
inactive: [7] 102 % of control | [8] 102 % of control | [9] 112 % of control

CC1(c2ccccc2)CCC(=O)NC1=O (stereo not drawn)
inactive: [10] 102 % of control | [11] 101 % of control | [12] 106 % of control

O=C(O)C1(Cc2ccccc2)C(=O)C=Cc2ccccc21 (stereo not drawn)
inactive: [1] 101 % of control | [2] 101 % of control | [3] 97 % of control

ONc1ccccc1C(F)(F)F
inactive: [13] 97 % of control | [14] 95 % of control

Nc1nnnn1-c1ccccc1Cl
inactive: dose: 100.0 mg/kg/injection, schedule: Q04DX003 (ip), vehicle: Klucel (hydroxypropylcellulose) (HPC) 105 % of control | dose: 200.0 mg/kg/injection, schedule: Q04DX003 (ip), vehicle: Klucel (hydroxypropylcellulose) (HPC) 100 % of control | dose: 400.0 mg/kg/injection, schedule: Q04DX003 (ip), vehicle: Klucel (hydroxypropylcellulose) (HPC) 101 % of control

Oc1ccc(/C=N/N=C/c2ccc(O)c(O)c2)cc1O
inactive: [15] 121 % of control | [16] 106 % of control and 119 % of control | [17] 113 % of control | dose: 400.0 mg/kg/injection, schedule: Q01DX005 (ip), vehicle: saline with Tween-80 121 % of control

C=CCN1CCN(c2ccncc2S(=O)(=O)N2CCN(C)CC2)CC1
inactive: [13] 105 % of control | [14] 99 % of control | [18] 97 % of control

CC1OC(OC2C(Oc3cc(O)c4c(c3)O[C@H](c3ccc(O)cc3)CC4=O)OC(CO)C(O)C2O)C(O)C(O)C1O (stereo partly drawn)
inactive: [7] 97 % of control | [8] 97 % of control | [9] 101 % of control

C[C@]12CCC(=O)C=C1CC[C@H]1[C@@H]3CC[C@](O)(C(=O)CF)[C@@]3(C)C[C@H](O)[C@@]12F
inactive: dose: 3.12 mg/kg/injection, schedule: Q01DX009 (ip), vehicle: saline 105 % of control | [19] 102 % of control | [20] 118 % of control | [21] 90 % of control

CCCCCCCCOC(=O)Nc1ccc(OCC)cc1
inactive: dose: 0.75 mg/kg/injection, schedule: Q01DX009 (ip), vehicle: saline with Tween-80 92 % of control | dose: 1.5 mg/kg/injection, schedule: Q01DX009 (ip), vehicle: saline with Tween-80 97 % of control | dose: 3.0 mg/kg/injection, schedule: Q01DX009 (ip), vehicle: saline with Tween-80 104 % of control

CC1(C)OC(=O)N(CO)C1=O
inactive: [13] 109 % of control | [14] 119 % of control | [18] 100 % of control

COc1ccccc1C1c2cc3c(cc2OC(C)(N2CCCC2)C1C)OCO3 (stereo not drawn)
inactive: dose: 100.0 mg/kg/injection, schedule: Q04DX002 (ip), vehicle: saline with Tween-80 96 % of control | dose: 200.0 mg/kg/injection, schedule: Q04DX002 (ip), vehicle: saline with Tween-80 102 % of control | dose: 400.0 mg/kg/injection, schedule: Q04DX002 (ip), vehicle: saline with Tween-80 99 % of control

Cc1no[n+]([O-])c1C(N)=O
inactive: [10] 101 % of control | [11] 100 % of control | [12] 102 % of control

Nc1nc2c(c(-c3nc(N)nc4c3CCc3ccccc3-4)n1)CCc1ccccc1-2
inactive: [4] 105 % of control | [5] 99 % of control | [6] 107 % of control

C(=N\SC(c1ccccc1)(c1ccccc1)c1ccccc1)/c1ccccc1
inactive: [15] 100 % of control | [16] 103 % of control

COC(=O)C1c2ccccc2CC(=O)N1N (stereo not drawn)
inactive: dose: 6.25 mg/kg/injection, schedule: Q01DX009 (ip), vehicle: Klucel (hydroxypropylcellulose) (HPC) 102 % of control | dose: 12.5 mg/kg/injection, schedule: Q01DX009 (ip), vehicle: Klucel (hydroxypropylcellulose) (HPC) 100 % of control | dose: 25.0 mg/kg/injection, schedule: Q01DX009 (ip), vehicle: Klucel (hydroxypropylcellulose) (HPC) 100 % of control

C#CC(=O)CCC
inactive: dose: 3.75 mg/kg/injection, schedule: Q01DX005 (ip), vehicle: saline with Tween-80 113 % of control | dose: 7.5 mg/kg/injection, schedule: Q01DX005 (ip), vehicle: saline with Tween-80 106 % of control | dose: 15.0 mg/kg/injection, schedule: Q01DX005 (ip), vehicle: saline with Tween-80 105 % of control

CCCCC(NC(=O)CNC(=O)OCc1ccccc1)C(=O)O (stereo not drawn)
inactive: [7] 90 % of control | [8] 104 % of control | [9] 95 % of control

C/C(=N\NC(=S)N1CCC(c2ccccc2)CC1)c1ccccn1
inactive: [22] 100 % of control | [23] 101 % of control

CN(C)c1ccc(N=Cc2cc[n+](C)cc2)cc1
inactive: [19] 114 % of control | [20] 101 % of control | [21] 105 % of control | dose: 25.0 mg/kg/injection, schedule: Q04DX003 (ip), vehicle: saline 100 % of control | [13] 111 % of control | dose: 50.0 mg/kg/injection, schedule: Q04DX003 (ip), vehicle: saline 107 % of control | [22] 107 % of control

c1ccc(C2SCCN2c2ccccc2)cc1 (stereo not drawn)
inactive: [13] 91 % of control | [14] 90 % of control | [18] 89 % of control

CCCCCCC(=O)/C=C/c1cc(Cl)cc(Cl)c1
inactive: [15] 95 % of control | [16] 91 % of control | [17] 92 % of control

N#Cc1ccc(C#N)cc1
inactive: [24] 90 % of control | dose: 50.0 mg/kg/injection, schedule: Q04DX003 (ip), vehicle: saline with Tween-80 91 % of control | [25] 100 % of control | dose: 100.0 mg/kg/injection, schedule: Q04DX003 (ip), vehicle: saline with Tween-80 91 % of control | [26] 100 % of control | dose: 200.0 mg/kg/injection, schedule: Q04DX003 (ip), vehicle: saline with Tween-80 87 % of control

C1Cc2onc(-c3noc4c3CCC4)c2C1
inactive: [4] 104 % of control | [5] 96 % of control | [6] 99 % of control

Cc1ccn2c(C(C)O)nnc2c1 (stereo not drawn)
inactive: [24] 93 % of control | [25] 90 % of control | [26] 100 % of control

NC(=S)N/N=C\c1nccc2ccccc12
inactive: [19] 90 % of control | [20] 99 % of control | dose: 50.0 mg/kg/injection, schedule: Q01DX009 (ip), vehicle: suspension in saline 94 % of control

CCC[CH2][Sn]([F])([CH2]CCC)[O][Sn]([F])([CH2]CCC)[CH2]CCC
inactive: [22] 101 % of control | [23] 105 % of control

C/C(=N\N=C(/N)N1CCCC1)c1ccc2c(c1)Cc1cc(/C(C)=N/N=C(\N)N3CCCC3)ccc1-2
inactive: dose: 25.0 mg/kg/injection, schedule: Q04DX002 (ip), vehicle: saline with Tween-80 98 % of control | dose: 50.0 mg/kg/injection, schedule: Q04DX002 (ip), vehicle: saline with Tween-80 98 % of control
